# Test results from US6737383B1, “Herbicidal oxadiazolidines” (priority 1999, dated 2004).
# Key:
# [1] = test system: bamyardgrass; assay: Test B flood test barnyardgrass; assay type: in vivo, Echinochloa crus-galli
# Summary of the method: (§1)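 Flood test on plants grown to the 2-leaf stage; treated plants kept in greenhouse twelve to sixteen days, then visually rated against controls on a 0 (no effect) to 10 (complete control) scale.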
# [2] = test system: bedstraw; assay: Test B pre/postemergence bedstraw; assay type: in vivo, Galium aparine
# Summary of the method: (§2)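 Herbicidal effect was estimated by eye on a ten-point control scale after plants spent twelve to sixteen days in a greenhouse following soil or foliar treatment. Foliar sprays targeted plants at one to four leaves; all doses were formulated in a non-phytotoxic solvent with surfactant.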
# [3] = test system: wheat; assay: Test B pre/postemergence wheat; assay type: in vivo, Triticum aestivum; settings: for Wheat plant response rating: scale of 0 to 10 where 0 is no effect and 10 is complete control
# Summary of the method: as §2
# [4] = test system: sugar beet; assay: Test B pre/postemergence sugar beet; assay type: in vivo, Beta vulgaris; settings: for Sugarbeets plant response rating: scale of 0 to 10 where 0 is no effect and 10 is complete control
# Summary of the method: as §2
# [5] = test system: surinam grass; assay: Test B pre/postemergence surinam grass; assay type: in vivo, Brachiaria decumbens
# Summary of the method: as §2
# [6] = test system: corn; assay: Test B pre/postemergence corn; assay type: in vivo, Zea mays; settings: for Corn plant response rating: scale of 0 to 10 where 0 is no effect and 10 is complete control
# Summary of the method: as §2
# [7] = test system: rice; assay: Test B flood test rice; assay type: in vivo, Oryza sativa
# Summary of the method: as §1
# [8] = test system: rape; assay: Test B pre/postemergence rape; assay type: in vivo, Brassica napus; settings: for Rape plant response rating: scale of 0 to 10 where 0 is no effect and 10 is complete control
# Summary of the method: as §2
# [9] = test system: morningglory; assay: Test B pre/postemergence morningglory; assay type: in vivo, Ipomoea hederacea; settings: for Morningglory plant response rating: scale of 0 to 10 where 0 is no effect and 10 is complete control
# Summary of the method: as §2
# [10] = test system: blackgrass; assay: Test B pre/postemergence blackgrass; assay type: in vivo, Alopecurus myosuroides
# Summary of the method: as §2
# [11] = test system: giant foxtail; assay: Test B pre/postemergence giant foxtail; assay type: in vivo, Setaria faberii; settings: for Giant foxtail plant response rating: scale of 0 to 10 where 0 is no effect and 10 is complete control
# Summary of the method: as §2
# [12] = test system: purple nutsedge; assay: Test B pre/postemergence purple nutsedge; assay type: in vivo, Cyperus rotundus; settings: for Nutsedge plant response rating: scale of 0 to 10 where 0 is no effect and 10 is complete control
# Summary of the method: as §2
# [13] = test system: crabgrass; assay: Test B pre/postemergence crabgrass; assay type: in vivo, Digitaria sanguinalis; settings: for Crabgrass plant response rating: scale of 0 to 10 where 0 is no effect and 10 is complete control
# Summary of the method: as §2
# [14] = test system: wild oat; assay: Test B pre/postemergence wild oat; assay type: in vivo, Avena fatua; settings: for Wild oats plant response rating: scale of 0 to 10 where 0 is no effect and 10 is complete control
# Summary of the method: as §2
# [15] = test system: pigweed; assay: Test B pre/postemergence pigweed; assay type: in vivo, Amaranthus retroflexus; settings: for Redroot pigweed plant response rating: scale of 0 to 10 where 0 is no effect and 10 is complete control
# Summary of the method: as §2
# [16] = test system: cocklebur; assay: Test B pre/postemergence cocklebur; assay type: in vivo, Xanthium strumarium; settings: for Cocklebur plant response rating: scale of 0 to 10 where 0 is no effect and 10 is complete control
# Summary of the method: as §2
# [17] = Rate 62 g/ha, headed Pre-emergence (flood test species), scale 0 to 10 (0 no effect, 10 complete control)
# [18] = Rate 125 g/ha, Pre-emergence, flood test species, scale 0 to 10 where 0 is no effect and 10 is complete control
# [19] = Rate 250 g/ha, Pre-emergence, flood-test species, scale 0 to 10, 0 is no effect, 10 is complete control
# [20] = Rate 500 g/ha, Pre-emergence, flood test species, scale 0 to 10 (0 no effect, 10 complete control)
# [21] = Postemergence, Rate 125 g/ha, scale 0 to 10, 0 is no effect, 10 is complete control
# [22] = Preemergence, Rate 62 g/ha, scale of 0 to 10 where 0 is no effect and 10 is complete control
# [23] = Preemergence, Rate 500 g/ha, scale of 0 to 10 where 0 is no effect and 10 is complete control
# [24] = Rate 62 g/ha, Postemergence, scale of 0 to 10 where 0 is no effect and 10 is complete control
# [25] = Rate 250 g/ha, Postemergence, scale of 0 to 10 where 0 is no effect and 10 is complete control
# [26] = Rate 500 g/ha, Postemergence, scale 0 to 10, 0 no effect, 10 complete control
# [27] = Preemergence, Rate 250 g/ha, scale of 0 to 10 where 0 is no effect and 10 is complete control
smiles,measurement,setting,value
CC(C)N(C(=O)n1oc(=O)n(C2CCCCCC2)c1=O)c1ccc(F)cc1 [Compound 340],Barnyardgrass plant response rating,[1]; [17],7
same,Barnyardgrass plant response rating,[1]; [18],6
same,Barnyardgrass plant response rating,[1]; [19],10
same,Barnyardgrass plant response rating,[1]; [20],9
same,"Plant response rating, Bedstraw",[2]; [21],7
same,Bedstraw plant response rating,[2]; [22],0
same,Bedstraw plant response rating (0 to 10 scale),"[2]; Preemergence, Rate 125 g/ha",0
same,Bedstraw plant response rating,[2]; [23],5
same,Bedstraw plant response rating,[2]; [24],3
same,"Plant response rating, Bedstraw",[2]; [25],7
same,"Plant response rating, Bedstraw",[2]; [26],8
same,"Plant response rating, Wheat",[3]; [21],0
same,Wheat plant response rating,"[3]; Preemergence, Rate 62 g/ha",0
same,Wheat plant response rating (0 to 10 scale),"[3]; Preemergence, Rate 125 g/ha",0
same,Wheat plant response rating,"[3]; Preemergence, Rate 250 g/ha",0
same,Wheat plant response rating,"[3]; Preemergence, Rate 500 g/ha",0
same,Wheat plant response rating,"[3]; Rate 62 g/ha, Postemergence",0
same,"Plant response rating, Wheat",[3]; [26],0
same,"Plant response rating, Sugarbeets",[4]; [21],2
same,Sugarbeets plant response rating,"[4]; Preemergence, Rate 62 g/ha",0
same,Sugarbeets plant response rating (0 to 10 scale),"[4]; Preemergence, Rate 125 g/ha",0
same,Sugarbeets plant response rating,"[4]; Preemergence, Rate 250 g/ha",0
same,Sugarbeets plant response rating,"[4]; Preemergence, Rate 500 g/ha",0
same,Sugarbeets plant response rating,"[4]; Rate 62 g/ha, Postemergence",0
same,"Plant response rating, Sugarbeets",[4]; [26],6
same,"Plant response rating, B. signalgrass",[5]; [21],0
same,B. signalgrass plant response rating,[5]; [22],0
same,"B. signalgrass plant response rating (0 to 10 scale, 0 is no effect, 10 is complete control)","[5]; Preemergence, Rate 125 g/ha",0
same,B. signalgrass plant response rating,[5]; [27],1
same,B. signalgrass plant response rating,[5]; [23],2
same,B. signalgrass plant response rating,[5]; [24],0
same,"Plant response rating, B. signalgrass",[5]; [25],0
same,"Plant response rating, B. signalgrass",[5]; [26],0
same,"Plant response rating, Corn",[6]; [21],0
same,Corn plant response rating,"[6]; Preemergence, Rate 62 g/ha",0
same,Corn plant response rating (0 to 10 scale),"[6]; Preemergence, Rate 125 g/ha",0
same,Corn plant response rating,"[6]; Preemergence, Rate 250 g/ha",0
same,Corn plant response rating,"[6]; Preemergence, Rate 500 g/ha",0
same,Corn plant response rating,"[6]; Rate 62 g/ha, Postemergence",0
same,"Plant response rating, Corn",[6]; [26],0
same,Rice plant response rating,[7]; [17],0
same,Rice plant response rating,[7]; [18],0
same,Rice plant response rating,[7]; [19],0
same,Rice plant response rating,[7]; [20],0
same,"Plant response rating, Rape",[8]; [21],2
same,Rape plant response rating,"[8]; Preemergence, Rate 62 g/ha",0
same,Rape plant response rating (0 to 10 scale),"[8]; Preemergence, Rate 125 g/ha",0
same,Rape plant response rating,"[8]; Preemergence, Rate 250 g/ha",0
same,Rape plant response rating,"[8]; Preemergence, Rate 500 g/ha",0
same,Rape plant response rating,"[8]; Rate 62 g/ha, Postemergence",2
same,"Plant response rating, Rape",[8]; [26],6
same,"Plant response rating, Morningglory",[9]; [21],7
same,Morningglory plant response rating,"[9]; Preemergence, Rate 62 g/ha",0
same,Morningglory plant response rating (0 to 10 scale),"[9]; Preemergence, Rate 125 g/ha",0
same,Morningglory plant response rating,"[9]; Preemergence, Rate 250 g/ha",0
same,Morningglory plant response rating,"[9]; Preemergence, Rate 500 g/ha",0
same,Morningglory plant response rating,"[9]; Rate 62 g/ha, Postemergence",2
same,"Plant response rating, Morningglory",[9]; [26],10
same,"Plant response rating, Blackgrass",[10]; [21],0
same,Blackgrass plant response rating,[10]; [22],0
same,Blackgrass plant response rating (0 to 10 scale),"[10]; Preemergence, Rate 125 g/ha",2
same,Blackgrass plant response rating,[10]; [27],3
same,Blackgrass plant response rating,[10]; [23],8
same,Blackgrass plant response rating,[10]; [24],0
same,"Plant response rating, Blackgrass",[10]; [25],3
same,"Plant response rating, Blackgrass",[10]; [26],8
same,"Plant response rating, Giant foxtail",[11]; [21],0
same,Giant foxtail plant response rating,"[11]; Preemergence, Rate 62 g/ha",8
same,Giant foxtail plant response rating (0 to 10 scale),"[11]; Preemergence, Rate 125 g/ha",10
same,Giant foxtail plant response rating,"[11]; Preemergence, Rate 250 g/ha",10
same,Giant foxtail plant response rating,"[11]; Preemergence, Rate 500 g/ha",10
same,Giant foxtail plant response rating,"[11]; Rate 62 g/ha, Postemergence",0
same,"Plant response rating, Giant foxtail",[11]; [26],6
same,"Plant response rating, Nutsedge",[12]; [21],0
same,Nutsedge plant response rating,"[12]; Preemergence, Rate 62 g/ha",0
same,Nutsedge plant response rating (0 to 10 scale),"[12]; Preemergence, Rate 125 g/ha",0
same,Nutsedge plant response rating,"[12]; Preemergence, Rate 250 g/ha",0
same,Nutsedge plant response rating,"[12]; Preemergence, Rate 500 g/ha",0
same,Nutsedge plant response rating,"[12]; Rate 62 g/ha, Postemergence",0
same,"Plant response rating, Nutsedge",[12]; [26],0
same,"Plant response rating, Crabgrass",[13]; [21],0
same,Crabgrass plant response rating,"[13]; Preemergence, Rate 62 g/ha",0
same,Crabgrass plant response rating (0 to 10 scale),"[13]; Preemergence, Rate 125 g/ha",3
same,Crabgrass plant response rating,"[13]; Preemergence, Rate 250 g/ha",8
same,Crabgrass plant response rating,"[13]; Preemergence, Rate 500 g/ha",9
same,Crabgrass plant response rating,"[13]; Rate 62 g/ha, Postemergence",0
same,"Plant response rating, Crabgrass",[13]; [26],2
same,"Plant response rating, Wild oats",[14]; [21],0
same,Wild oats plant response rating,"[14]; Preemergence, Rate 62 g/ha",0
same,Wild oats plant response rating (0 to 10 scale),"[14]; Preemergence, Rate 125 g/ha",0
same,Wild oats plant response rating,"[14]; Preemergence, Rate 250 g/ha",2
same,Wild oats plant response rating,"[14]; Preemergence, Rate 500 g/ha",3
same,Wild oats plant response rating,"[14]; Rate 62 g/ha, Postemergence",0
same,"Plant response rating, Wild oats",[14]; [26],0
same,"Plant response rating, Redroot pigweed",[15]; [21],4
same,Redroot pigweed plant response rating,"[15]; Preemergence, Rate 62 g/ha",0
same,Redroot pigweed plant response rating (0 to 10 scale),"[15]; Preemergence, Rate 125 g/ha",0
same,Redroot pigweed plant response rating,"[15]; Preemergence, Rate 250 g/ha",3
same,Redroot pigweed plant response rating,"[15]; Preemergence, Rate 500 g/ha",4
same,Redroot pigweed plant response rating,"[15]; Rate 62 g/ha, Postemergence",2
same,"Plant response rating, Cocklebur",[16]; [21],0
same,Cocklebur plant response rating,"[16]; Preemergence, Rate 62 g/ha",0
same,Cocklebur plant response rating (0 to 10 scale),"[16]; Preemergence, Rate 125 g/ha",0
same,Cocklebur plant response rating,"[16]; Preemergence, Rate 250 g/ha",0
same,Cocklebur plant response rating,"[16]; Preemergence, Rate 500 g/ha",0
same,Cocklebur plant response rating,"[16]; Rate 62 g/ha, Postemergence",0
same,"Plant response rating, Cocklebur",[16]; [26],0
